Measurements from patent US11198687B2, “Heteroaryl allosteric modulators of nicotinic acetylcholine receptors” (Merck Sharp & Dohme Corp., priority 2017, dated 2021).
Like-named read-outs stand apart in the source and are kept apart here.

Target: human α7 nAChR (Homo sapiens, UniProt P36544)
Assay: Automated patch-clamp electrophysiology functional assay (Assay A)
Type: cell-based
Conditions: IonFlux HT whole-cell population patch, HEK cell line stably expressing human RIC-3 and human α7, 40 μM acetylcholine
Procedure, shortened: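 Whole-cell population patch clamp at room temperature on HEK cells stably expressing human α7 and RIC-3, held at −60 mV. Compounds tested at three ascending concentrations per recording, with or without 40 μM acetylcholine; currents quantified relative to an initial 1 s 40 μM acetylcholine response; EC50 from concentration series.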

human α7 nAChR, sequence (P36544 23-502): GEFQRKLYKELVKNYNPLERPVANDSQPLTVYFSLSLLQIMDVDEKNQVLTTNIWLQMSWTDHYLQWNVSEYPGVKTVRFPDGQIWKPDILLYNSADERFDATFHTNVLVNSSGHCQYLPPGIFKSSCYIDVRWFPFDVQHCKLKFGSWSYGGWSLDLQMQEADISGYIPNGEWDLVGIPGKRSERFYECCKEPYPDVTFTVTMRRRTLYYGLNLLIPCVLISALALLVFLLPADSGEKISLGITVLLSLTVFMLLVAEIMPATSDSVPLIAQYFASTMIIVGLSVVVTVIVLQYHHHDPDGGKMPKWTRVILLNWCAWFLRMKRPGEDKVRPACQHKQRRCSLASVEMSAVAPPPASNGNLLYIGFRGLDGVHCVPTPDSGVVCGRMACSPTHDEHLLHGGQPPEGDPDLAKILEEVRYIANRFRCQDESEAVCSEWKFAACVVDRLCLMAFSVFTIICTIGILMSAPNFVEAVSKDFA

Compound `CC1(C)[C@H](c2ccc(S(N)(=O)=O)cn2)[C@H]1c1nc(-c2cccc(C(F)(F)F)c2)no1` [Example E6, 6-[(1R,3R)-2,2-Dimethyl-3-{3-[3-(trifluoromethyl)phenyl]-1,2,4-oxadiazol-5-yl}cyclopropyl]pyridine-3-sulfonamide] has an EC50 (read-out: α7 nAChR Potency) of 500 to 5000 nM.
`CC1(C)[C@@H](c2ccc(S(N)(=O)=O)nc2)[C@@H]1c1noc(-c2c(F)ccc(F)c2F)n1` (racemic) [Example C1, 5-{trans-2,2-Dimethyl-3-[5-(2,3,6-trifluorophenyl)-1,2,4-oxadiazol-3-yl]cyclopropyl}pyridine-2-sulfonamide] gave an EC50 (read-out: α7 nAChR EC50) of 580 nM and an EC50 (read-out: α7 nAChR Potency) of 500 to 5000 nM.
Compound `CC1(C)C(c2ccc(S(N)(=O)=O)nc2)C1c1cc(-c2cccc(F)c2)no1` (racemic) [Example C3, 5-{trans-3-[3-(3-Fluorophenyl)isoxazol-5-yl]-2,2-dimethylcycpropyl}pyridine-2-sulfonamide] has an EC50 (read-out: α7 nAChR EC50) of 430 nM and an EC50 (read-out: α7 nAChR Potency) of 100 to 500 nM.
